Laboratory results published in patent US11168319B1, “Plant cell culture” (Inari Agriculture Technology, Inc., priority 2017, dated 2021).
Where two headings read alike, the source gives them in different places.

Tests used:
[1] = test system: plant protoplasts
[2] = test system: maize protoplasts (A188, B73, B104, HiIIA, HiIIB); experiment: Protoplast viability by light microscope, five maize germplasm lines; type: cell-based; conditions: 34 hours, across the five maize lines
From the text: Viability was judged by visualization under a light microscope.

For [Ca+2].[Cl-].[Cl-] [calcium chloride], the plant protoplast viability ([1]; about 40 millimolar or about 50 millimolar) was “Even higher levels of plant protoplast viability”, the protoplast viability ([1]; between or about 50 to about 100 millimolar, several titration experiments) was “greatest improvement in protoplast viability” and the plant protoplast viability ([1]; culture medium contains about 30 millimolar) was “Beneficial effects”. For the same compound, the viability ([2]; 50 millimolar calcium) was “about 55%” and the viability ([2]; 100 millimolar calcium) was “about 70%”.
